Reference: US20210221848A1, “POLYMYXIN DERIVATIVES AND THEIR USE IN COMBINATION THERAPY TOGETHER WITH DIFFERENT ANTIBIOTICS” (priority 2014, published 2021)
Where two headings read alike, the source gives them in different places.

Experiments:
[1] = tested on: E. coli strains with elevated MICs to Polymyxin B; assay: MIC against strains with elevated MICs to Polymyxin B; format: cell-based, Escherichia coli; conditions: Table 6D; for MIC E. coli 058: strain 058, elevated MIC to Polymyxin B; for MIC E. coli 059: strain 059, elevated MIC to Polymyxin B; for MIC E. coli 060: strain 060, elevated MIC to Polymyxin B; for MIC E. coli 061: strain 061, elevated MIC to Polymyxin B
Summary of the method: (§1)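 Inoculum was a direct suspension of colonies from an 18-24 hour Mueller-Hinton agar plate, adjusted to the 0.5 McFarland standard. Duplicate assays; the lower value was reported when duplicates differed by less than 2-fold, otherwise the run was invalid. Repeat-tested compounds give the modal MIC.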

[2] = tested on: K. pneumoniae strains with elevated MICs to Polymyxin B; assay: as above; format: cell-based, Klebsiella pneumoniae; conditions: Table 6D; for MIC K. pneumoniae 063: strain 063, elevated MIC to Polymyxin B; for MIC K. pneumoniae 064: strain 064, elevated MIC to Polymyxin B; for MIC K. pneumoniae 655: strain 655, elevated MIC to Polymyxin B; for MIC K. pneumoniae 062: strain 062, elevated MIC to Polymyxin B
Summary of the method: as §1

[3] = tested on: P. aeruginosa strains with elevated MICs to Polymyxin B; assay: as above; format: cell-based, Pseudomonas aeruginosa; conditions: Table 6D; for MIC P. aeruginosa 065: strain 065, elevated MIC to Polymyxin B; for MIC P. aeruginosa 066: strain 066, elevated MIC to Polymyxin B; for MIC P. aeruginosa 067: strain 067, elevated MIC to Polymyxin B
Summary of the method: as §1

[4] = tested on: A. baumanii strains with elevated MICs to Polymyxin B; assay: as above; format: cell-based, Acinetobacter baumannii; conditions: Table 6D; for MIC A. baumannii 053: strain 053, elevated MIC to Polymyxin B; for MIC A. baumannii 056: strain 056, elevated MIC to Polymyxin B; for MIC A. baumannii 068: strain 068, elevated MIC to Polymyxin B; for MIC A. baumannii 070: strain 070, elevated MIC to Polymyxin B
Summary of the method: as §1

[5] = tested on: E. coli
[6] = tested on: K. pneumoniae
[7] = tested on: P. aeruginosa
[8] = tested on: A. baumannii
[9] = absence of a second agent, Table 6B

Substance	MIC E. coli 058 [1]	MIC E. coli 059 [1]	MIC E. coli 060 [1]	MIC E. coli 061 [1]	MIC K. pneumoniae 063 [2]	MIC K. pneumoniae 064 [2]	MIC K. pneumoniae 655 [2]	MIC P. aeruginosa 065 [3]	MIC P. aeruginosa 066 [3]	MIC P. aeruginosa 067 [3]	MIC A. baumannii 053 [4]	MIC A. baumannii 056 [4]	MIC A. baumannii 068 [4]	MIC A. baumannii 070 [4]	MIC, E. coli ATCC 25922 [5, 9]	MIC, E. coli NCTC 13441 [5, 9]	MIC, P. aeruginosa ATCC 27853 [7, 9]	MIC, P. aeruginosa CCUG 59347 [7, 9]	MIC, A. baumannii ATCC BAA-747 [8, 9]	MIC, A. baumannii NCTC 13424 [8, 9]	also measured
trans-4- octylpyrrolidine-3- carbonyl polymyxin B nonapeptide [Example D30]	1 micrograms/mL	1 micrograms/mL	1 micrograms/mL	4 micrograms/mL	4 micrograms/mL	1 micrograms/mL	2 micrograms/mL	0.5 micrograms/mL	0.5 micrograms/mL	16 micrograms/mL	16 micrograms/mL	8 micrograms/mL	2 micrograms/mL	1 micrograms/mL	2 micrograms/mL	2 micrograms/mL	1 micrograms/mL	1 micrograms/mL	1 micrograms/mL	2 micrograms/mL	MIC, K. pneumoniae ATCC 4352 [6, 9]: 1 micrograms/mL
cis-5- (benzylcarbamoyl) piperidine-3- carbonyl L-Thr-L- Dap-polymyxin B heptapeptide [Example D75]	4 micrograms/mL	8 micrograms/mL	4 micrograms/mL	8 micrograms/mL	64 micrograms/mL	8 micrograms/mL	64 micrograms/mL	4 micrograms/mL	8 micrograms/mL	–	64 micrograms/mL	8 micrograms/mL	16 micrograms/mL	32 micrograms/mL	–	–	–	–	–	–	MIC K. pneumoniae 062 [2]: 128 micrograms/mL; MIC, E. coli ATCC 25922 ([5]; sole activity, Table 6C): 0.06 micrograms/mL; MIC, E. coli NCTC 13441 ([5]; sole activity, Table 6C): 0.125 micrograms/mL; MIC, K. pneumoniae ATCC 4352 ([6]; sole activity, Table 6C): 0.06 micrograms/mL; MIC, K. pneumoniae ATCC BAA-2146 ([6]; sole activity, Table 6C): 0.125 micrograms/mL; MIC, P. aeruginosa ATCC 27853 ([7]; sole activity, Table 6C): 0.5 micrograms/mL; MIC, P. aeruginosa CCUG 59347 ([7]; sole activity, Table 6C): 0.5 micrograms/mL; MIC, A. baumannii ATCC BAA-747 ([8]; sole activity, Table 6C): 0.06 micrograms/mL; MIC, A. baumannii NCTC 13424 ([8]; sole activity, Table 6C): 0.125 micrograms/mL
(trans-5- octylpiperidine)-3- carbonyl polymyxin B nonapeptide [Example D22]	–	8 micrograms/mL	16 micrograms/mL	64 micrograms/mL	>64 micrograms/mL	>64 micrograms/mL	>256 micrograms/mL	–	>64 micrograms/mL	>64 micrograms/mL	>64 micrograms/mL	>64 micrograms/mL	4 micrograms/mL	4 micrograms/mL	4 micrograms/mL	4 micrograms/mL	2 micrograms/mL	1 micrograms/mL	>8 micrograms/mL	>8 micrograms/mL	MIC K. pneumoniae 062 [2]: >64 micrograms/mL; MIC, K. pneumoniae ATCC BAA-2146 [6, 9]: >8 micrograms/mL
